Consider eleven compounds from patent US9802943B2, “HIV inhibiting bicyclic pyrimidine derivatives” (Janssen Sciences Ireland UC, priority 2004, dated 2017).

A value given as a limit tells only on which side of the number the result lay.

The test system of series [1] is Strain D (mutation Y188L in HIV reverse transcriptase). Description: cellular antiviral assay, HIV mutant strain D. It counts as cell-based. To be noted: for pEC50 D: strain D, Y188L; for EC50: Human immunodeficiency virus 1, read-out: pEC50 D (converted). As to the method:
(§1) Because of the increasing emergence of drug resistant HIV strains, the present compounds were tested for their potency against clinically isolated HIV strains harboring several mutations. These mutations are associated with resistance to reverse transcriptase inhibitors and result in viruses that show various degrees of phenotypic cross-resistance to the currently commercially available drugs such as for instance AZT and delavirdine.
(§2) The antiviral activity of the compound of the present invention has been evaluated in the presence of wild type HIV and HIV mutants bearing mutations at the reverse transcriptase gene. The activity of the compounds is evaluated using a cellular assay and the residual activity is expressed in pEC50 values. The columns IIIB and A-G in the table list the pEC50 values against various strains IIIB, A-G. • Strain IIIB is wild type HIV-LAI strain • Strain A contains mutation Y181C in HIV reverse transcriptase, • Strain B contains mutation K103N in HIV reverse transcriptase, • Strain C contains mutation L100I in HIV reverse transcriptase, • Strain D contains mutation Y188L in HIV reverse transcriptase, • Strain E contains mutations L100I and K103N in HIV reverse transcriptase, • Strain F contains mutations K103N and Y181C in HIV reverse transcriptase, and • Strain G contains mutations L100I, K103N, Y181C, V179I E138G L214F, V278V/I • and A327A/V in HIV reverse transcriptase.

For series [2], the system named is Strain E (mutations L100I and K103N in HIV reverse transcriptase). Put plainly: cellular antiviral assay, HIV mutant strain E. Format: cell-based. The settings on record: for pEC50 E: strain E, L100I and K103N; for EC50: Human immunodeficiency virus 1, read-out: pEC50 E (converted). As to the method:
as §1, §2

The test system of series [3] is Strain F (mutations K103N and Y181C in HIV reverse transcriptase). Description: cellular antiviral assay, HIV mutant strain F. To be noted: for pEC50 F: strain F, K103N and Y181C; for EC50: Human immunodeficiency virus 1, read-out: pEC50 F (converted). It counts as cell-based. As to the method:
as §1, §2

The test system of series [4] is Strain A (mutation Y181C in HIV reverse transcriptase). Description: cellular antiviral assay, HIV mutant strain A. Format: cell-based. To be noted: for pEC50 A: strain A, Y181C; for EC50: Human immunodeficiency virus 1, read-out: pEC50 A (converted). As to the method: as §1, §2
Series [5] concerns Strain G (mutations L100I, K103N, Y181C, V179I E138G L214F, V278V/I and A327A/V in HIV reverse transcriptase). Put plainly: cellular antiviral assay, HIV mutant strain G. Format: cell-based. The settings on record: for pEC50 G: strain G, L100I, K103N, Y181C, V179I E138G L214F, V278V/I and A327A/V; for EC50: Human immunodeficiency virus 1, read-out: pEC50 G (converted). As to the method:
as §1, §2

Series [6] has as its system Strain IIIB (wild type HIV-LAI strain). Put plainly: cellular antiviral assay, wild type HIV. It counts as cell-based. To be noted: for pEC50 IIIB: strain IIIB, wild type HIV-LAI; for EC50: Human immunodeficiency virus 1, IIIB, read-out: pEC50 IIIB (converted). The procedure:
as §1, §2

Series [7] relates to Strain C (mutation L100I in HIV reverse transcriptase). Put plainly: cellular antiviral assay, HIV mutant strain C. Format: cell-based. The settings on record: for pEC50 C: strain C, L100I; for EC50: Human immunodeficiency virus 1, read-out: pEC50 C (converted). The procedure:
as §1, §2

In series [8] the test system is Strain B (mutation K103N in HIV reverse transcriptase). Description: cellular antiviral assay, HIV mutant strain B. It counts as cell-based. To be noted: for pEC50 B: strain B, K103N; for EC50: Human immunodeficiency virus 1, read-out: pEC50 B (converted). As to the method:
as §1, §2

For the compound `CCc1cc(CCC#N)cc(CC)c1N1CCc2c(C)nc(Nc3ccc(C#N)cc3)nc21` [Compound 16], the “pEC50 D” value in series [1] is 7. The “pEC50 E” value in series [2] turned out to be 8.1. Also, the “pEC50 F” value in series [3] came to 7.3. Besides, the “pEC50 A” value in [4] came to 7.7. Also, the “pEC50 G” value in series [5] amounted to 5.8. The “pEC50 IIIB” value in series [6] was determined as 8.2. The “pEC50 C” value in series [7] is given as 8.6. Besides, the “pEC50 B” value in series [8] came to 8.2.

With `CCc1cc(CCC#N)ccc1N1CCc2c(C)nc(Nc3ccc(C#N)cc3)nc21` [Compound 17], the “pEC50 D” value in [1] is 7.7. Also, the “pEC50 E” value in [2] was determined as 7.8. Besides, in series [3], the “pEC50 F” value is recorded as 7.2. For the same compound, the “pEC50 A” value in series [4] turned out to be 8.2. In series [5], the “pEC50 G” value amounted to 5.7. In addition, in [6], the “pEC50 IIIB” value is reported as 9. In [7], the “pEC50 C” value turned out to be 8.6. Moreover, in [8], the “pEC50 B” value was 8.9.

A word on the melting point: it is the temperature, or range, at which the solid turns liquid. In the case of `Cc1cc(/C=C/C#N)cc(C)c1-n1cnc2cnc(Nc3ccc(C#N)cc3)nc21` [Compound 20], the melting point is more than 250 °C. Also, the EC50 in series [1] was 15.8 nM. Further, in [2], the EC50 is 7.94 nM. Besides, in series [3], the EC50 is 39.8 nM. In addition, the EC50 in series [4] was 2.51 nM. In addition, the EC50 in series [5] was 2000 nM. Further, the EC50 in [6] is 0.2 nM. Also, the EC50 in series [7] is 0.631 nM. Besides, the EC50 in [8] was 0.631 nM.

With `Cc1cc(/C=C/C#N)cc(C)c1-n1c(-c2ccccc2)nc2cnc(Nc3ccc(C#N)cc3)nc21` [Compound 23], the “pEC50 D” value in [1] is on record as 7.7. Moreover, the “pEC50 E” value in series [2] came to 6.3. Also, in [3], the “pEC50 F” value worked out at 6.4. In addition, the “pEC50 A” value in series [4] stood at 7.1. For the same compound, the “pEC50 G” value in series [5] turned out to be 5.7. The “pEC50 IIIB” value in series [6] stood at 7.7. Besides, the “pEC50 C” value in series [7] worked out at 7.5. In [8], the “pEC50 B” value is reported as 7.6.

As for `N#C/C=C/c1cc(F)c(-n2cnc3cnc(Nc4ccc(C#N)cc4)nc32)c(Cl)c1` [Compound 24], the EC50 is 12.6 nM in series [1]; 6.31 nM in [2]; 12.6 nM in series [3]; 3.16 nM in series [4]; 2000 nM in [5]; 0.1 nM in series [6]. Also, the results for the EC50 in series [7] and in [8] were 0.2 nM and 0.1 nM, respectively.

In the case of `Cc1cc(/C=C/C#N)cc(C)c1-n1c(-c2ccccn2)nc2cnc(Nc3ccc(C#N)cc3)nc21` [Compound 25], the “pEC50 D” value in series [1] is 7.5. Moreover, in series [2], the “pEC50 E” value stood at 5.9. In addition, in series [3], the “pEC50 F” value came out at 7.2. The “pEC50 A” value in series [4] is 7.5. Also, the “pEC50 G” value in series [5] is listed as 5.6. Moreover, the “pEC50 IIIB” value in series [6] stood at 8.1. In addition, the “pEC50 C” value in series [7] stood at 7.2. For the same compound, the “pEC50 B” value in [8] turned out to be 7.6.

For `Cc1cc(/C=C/C#N)cc(C)c1-n1c(N)nc2cnc(Nc3ccc(C#N)cc3)nc21` [Compound 26], the EC50 in [1] was 79.4 nM; in [2], 126 nM; in series [3] it was 63.1 nM; in [4] it was 25.1 nM; in series [5], 12600 nM; in series [6] it was 2.51 nM. Further, the EC50 in series [7] was 20 nM; in [8], 12.6 nM.

Regarding `Cc1cc(/C=C/C#N)cc(C)c1-n1ccc2c(C)nc(Nc3ccc(C#N)cc3)nc21` [Compound 28], the “pEC50 D” value in [1] was found to be 7.7. Further, in [2], the “pEC50 E” value is given as 8.5. In addition, in series [3], the “pEC50 F” value amounted to 7.8. The “pEC50 A” value in series [4] was found to be 7.9. The “pEC50 G” value in [5] was 5.7. Besides, the “pEC50 IIIB” value in [6] was determined as 8.5. For the same compound, the “pEC50 C” value in series [7] came to 8.6. Also, the “pEC50 B” value in series [8] is on record as 8.5.

As to `Cc1cc(/C=C/C#N)cc(C)c1-n1c(=S)[nH]c2cnc(Nc3ccc(C#N)cc3)nc21` [Compound 31], the melting point was more than 250 °C. Besides, the EC50 in series [1] is 79.4 nM. In series [2], the EC50 was 398 nM. For the same compound, the EC50 in series [3] was 39.8 nM. Moreover, the EC50 in series [4] was 12.6 nM. In addition, the EC50 in [5] was 15800 nM. Moreover, the EC50 in series [6] is 1 nM. In addition, in series [7], the EC50 is 2.51 nM. Further, the EC50 in series [8] is 2.51 nM.

As to `CCOC(=O)c1cc(C)c(N2CCc3c(C)nc(Nc4ccc(C#N)cc4)nc32)c(C)c1` [Compound 33], the melting point was 92 °C. The EC50 in series [1] was 631 nM. Besides, the EC50 in [2] was 3980 nM. Besides, in [3], the EC50 is 3160 nM. The EC50 in series [4] was 2510 nM. Besides, the EC50 in series [5] is 12600 nM. The EC50 in [6] was 50.1 nM. Further, the EC50 in series [7] is 794 nM. Further, in series [8], the EC50 is 126 nM.

Consider `C/C(C#N)=C\c1cc(C)c(N2CCc3c(C)nc(Nc4ccc(C#N)cc4)nc32)c(C)c1` [Compound 34], for which the melting point worked out at 105 °C. Moreover, the EC50 in series [1] was 20 nM. In series [2], the EC50 was 15.8 nM. For the same compound, in [3], the EC50 is 20 nM. Besides, the EC50 in series [4] is 15.8 nM. Further, the EC50 in series [5] was 3980 nM. Moreover, in [6], the EC50 is 2 nM. Also, in series [7], the EC50 is 3.98 nM. Moreover, in [8], the EC50 was 2.51 nM.
